According to US12331019B2, “Modified amino acid derivatives for the treatment of neurological diseases and selected psychiatric disorders” (Uniwersytet Jagiellonski, priority 2019, dated 2025):

How the values were obtained:
mice [1] = experiment: spontaneous locomotor activity test; type: in vivo, mouse
Method: The assessment of the influence of the tested compounds on the spontaneous locomotor activity of animals (assessment of the sedative or activating effect) was carried out in accordance with the methodology described in the scientific literature (Mogilski et al. Inflamm. Res. 2017, 66, 79-95). The study group consisted of 10 animals.

[2] = rotarod test (motor coordination); conditions: male, Swiss albino (CD-1), mouse, in vivo, ip
Method: (§1) The study was conducted on male Swiss albino mice (CD-1) weighing 18-26 g. All procedures were carried out in accordance with applicable Polish and international guidelines on the ethics of animal testing, after obtaining appropriate institutional approval. […] These studies were carried out on individuals of male C57 black mice (Charles River) and individuals of male Sprague-Dawley rats. All tests were carried out based on the procedures described in the specialist literature.
(§2) These studies were also carried out in rats according to the methodology described by ETSP. The toxic dose (TD50) in the rotarod test was estimated based on the results obtained in 3-4 groups of animals consisting of at least 6 individuals.
(§3) To perform a statistical evaluation of the results, one-way analysis of variance (ANOVA) followed by Dunnett's post hoc test (multiple comparison test) were used. The values were considered statistically significant if p<0.05.

Swiss albino mice (CD-1) [3] = experiment: 6 Hz (44 mA) psychomotor seizure test; type: in vivo; conditions: Mus musculus, ip, 0.5 h; i.p., CD-1 mice, tested 30 min after administration
[4] = system: neurons derived from human neuroblastoma SH-SY5Y cells; experiment: neurotrophic activity on human neurons, MTT test; conditions: 48 hours; for viability of human neurons under standard conditions: 0.1 to 100 μg/ml; for concentrations from which the compound acted trophically (eliminating the effect of lack of B27 supplement): trophic stress (B27 removed)
Swiss albino mice (CD-1) [5] = conditions: i.p., CD-1 mice, 30 min; racemates, disclosed in publications; cited from earlier work
Swiss albino mice (CD-1) [6] = conditions: i.p., CD-1 mice, 30 min; racemates, disclosed in publications; cited from earlier work; remark: listed apart in the source
HaCaT cells = experiment: cytotoxic activity, MTT assay; type: cell-based; conditions: Homo sapiens, 72 hours incubation, mean ± SD
Source text: MTT assay. […] The IC50 value was estimated using CompuSyn version 1.0.

patients = conditions: monotherapy; cited from earlier work
HEK-293 cell line = experiment: cytotoxic activity, MTS test; conditions: 72 hours incubation, concentration range 1-100 μM
CYP2D6 = target: T1, CYP2D6 (Homo sapiens, UniProt P10635); experiment: CYP2D6 P450-Glo luminescence test; type: in vitro ADME; conditions: 10 μM
T1 construct: purchased Promega (Madison, WI, USA)
Method: (§4) The studies were conducted using commercial luminescence tests CYP3A4 P450-Glo™, CYP2D6 P450-Glo™ and CYP2C9 P450-Glo™ from Promega (Madison, WI, USA).
(§5) The studies were conducted using commercial luminescence tests CYP3A4 P450-Glo™, CYP2D6 P450-Glo™ and CYP2C9 P450-Glo™ from Promega (Madison, WI, USA). The CYP isoforms selected for study are responsible for the metabolism of approximately 60-70% of the drugs available and their stimulation or inhibition determines the majority of metabolic drug interactions.

in vivo = conditions: male, C57 black, mouse, ip
Method: as §1, §2, §3

Sprague-Dawley rats [7] = experiment: lamotrigine resistant amygdala kindled seizure model; type: in vivo, rat; conditions: 70 mg/kg i.p., 30 min, 5 rats tested
Method: as §1
(§6) Screening was performed on groups of 4-8 mice or 4-8 rats. The median effective dose (ED50) in a given test was estimated based on the results obtained in 3-4 groups of animals consisting of at least 6 individuals.

mice [8] = experiment: four plates test (Aron test); type: in vivo, mouse; conditions: vs vehicle control
Method: as §1, with “literature. […] The study group consisted of 8-10 animals. […] To perform a statistical evaluation of the results, one-way analysis of variance (ANOVA) followed by Dunnett's post hoc test (multiple comparison test) were used. The values were considered statistically significant if p<0.05.” for “literature.”

mice [9] = experiment: forced swim test (Porsolt test); type: in vivo, mouse; conditions: 30, 45 and 60 mg/kg i.p.; vs vehicle control
Method: as §1, with “literature. […] The study group consisted of 8-10 animals. […] To perform a statistical evaluation of the results, one-way analysis of variance (ANOVA) followed by Dunnett's post hoc test (multiple comparison test) were used. The values were considered statistically significant if p<0.05.” for “literature.”

CYP3A4 = target: T2, CYP3A4 (Homo sapiens, UniProt P08684); experiment: CYP3A4 P450-Glo luminescence test; type: in vitro ADME; conditions: 10 μM
T2 construct: purchased Promega (Madison, WI, USA)
Method: as §4, §5

Sprague-Dawley rats [10] = experiment: MES test in rats, ETSP; type: in vivo; conditions: Rattus norvegicus, ip, 0.5 h, i.p., tested 30 min after administration, 95% confidence limits in brackets
Method: as §1, §6, §3

CYP2C9 = CYP2C9 (Homo sapiens, UniProt P11712); conditions: 10 μM
Method: as §4, §5

mice [11] = experiment: formalin test; type: in vivo, mouse; conditions: vs vehicle control
Method: as §1, with “literature. […] The study group consisted of 8-10 animals. […] To perform a statistical evaluation of the results, one-way analysis of variance (ANOVA) followed by Dunnett's post hoc test (multiple comparison test) were used. The values were considered statistically significant if p<0.05.” for “literature.”

mice [12] = experiment: oxaliplatin-induced neuropathic pain model, von Frey test; type: in vivo, mouse
Method: as §1, with “literature. […] The study group consisted of 8-10 animals. […] To perform a statistical evaluation of the results, one-way analysis of variance (ANOVA) followed by Dunnett's post hoc test (multiple comparison test) were used. The values were considered statistically significant if p<0.05.” for “literature.”

mice [13] = experiment: streptozotocin-induced model of painful diabetic neuropathy, von Frey test; type: in vivo, mouse; conditions: 3 weeks after streptozotocin
Method: as §1, with “literature. […] The study group consisted of 8-10 animals. […] To perform a statistical evaluation of the results, one-way analysis of variance (ANOVA) followed by Dunnett's post hoc test (multiple comparison test) were used. The values were considered statistically significant if p<0.05.” for “literature.”

[14] = system: black C57 mice (Charles River); experiment: 6 Hz (44 mA) test, ETSP; type: in vivo; conditions: Mus musculus, ip, 1 h, i.p., tested 60 min after administration
Method: as §1, §6, §3

[15] = system: black C57 mice (Charles River); experiment: corneal kindled seizure model, ETSP; type: in vivo; conditions: Mus musculus, ip, 1 h, i.p., tested 60 min after administration
Method: as §1, §6, §3

HepG2 cell line = experiment: hepatotoxicity, MTS test; conditions: 72 hours incubation, concentration range 1-100 μM
mice [16] = experiment: neuroprotection in pilocarpine-induced status epilepticus (Fluoro-Jade B); conditions: PILO 300 mg/kg i.p.; dose of compound determined in the 6 Hz (32 mA) test; five mice shown (B-F)
human liver microsomes = experiment: metabolic stability in human liver microsomes; type: in vitro ADME; conditions: 120 minutes incubation, NADPH cofactor
Method: The metabolic stability study was performed using human liver microsomes purchased from Sigma-Aldrich (St. Louis, MO, USA).

C[C@H](C(=O)NCc1ccccc1F)N1C(=O)CCC1=O [Compound 2, (2R)-2-(2,5-dioxopyrrolidin-1-yl)-N-(2-fluorobenzyl)propanamide]
spontaneous locomotor activity (mice [1]; 90 mg/kg i.p.): statistically significant increase in spontaneous locomotor activity
TD50 at 30 min [2]: 299 mg/kg
ED50 (Swiss albino mice (CD-1) [3]): 37.2 mg/kg
viability of human neurons under standard conditions [4]: did not affect the viability
concentrations from which the compound acted trophically (eliminating the effect of lack of B27 supplement) [4]: ≥ 0.1 µg/mL

CC(C(=O)NCc1ccccc1F)N1C(=O)CCC1=O (racemic) [(RS)-2, (2RS)-2-(2,5-dioxopyrrolidin-1-yl)-N-(2-fluorobenzyl)propanamide]
TD50 Rotarod test (Swiss albino mice (CD-1) [5]): 300.9 mg/kg

CC(C(=O)NCc1ccccc1)N1C(=O)CCC1=O (racemic) [(RS)-1, (2RS)—N-benzyl-2-(2,5-dioxopyrrolidin-1-yl)propenamide]
ED50 6 Hz (44 mA) (Swiss albino mice (CD-1) [6]): 75.41 mg/kg

COc1cccc2c1C(=O)c1c(O)c3c(c(O)c1C2=O)C[C@@](O)(C(=O)CO)C[C@@H]3O[C@H]1C[C@H](N)[C@H](O)[C@H](C)O1 [Doxorubicin, reference compound]
IC50 (HaCaT cells): 0.23 ± 0.03 µM

NCC1(CC(=O)O)CCCCC1 [gabapentin]
sedative effect, share of patients (patients): approx. 9 % of patients

O=C1NC(=O)C(c2ccccc2)(c2ccccc2)N1 [phenytoin]
sedative effect, share of patients (patients): approx. 32 % of patients

CC[C@@H](C(N)=O)N1CCCC1=O [levetiracetam]
sedative effect, share of patients (patients): approx. 20 % of patients

C[C@H](C(=O)NCc1ccccc1)N1C(=O)CCC1=O [Compound 1, (2R)—N-benzyl-2-(2,5-dioxopyrrolidin-1-yl)propanamide]
effect on cell viability (HEK-293 cell line): did not show a statistically significant effect
number of light beams interruptions during 30 minutes (spontaneous locomotor activity) (mice [1]; 30, 60 and 90 mg/kg i.p.): statistically significantly increased the number of light beams interruptions
effect on CYP2D6 activity (CYP2D6): no effect
TD50 at 60 min (in vivo): > 150 mg/kg
Number of protected rats (Sprague-Dawley rats [7]): Number of protected rats: 3
protection (Sprague-Dawley rats [7]): (protection—60%)
number of electrically punished plate crossings (mice [8]; 30 mg/kg i.p.): did not result in a statistically significant difference
number of electrically punished plate crossings (mice [8]; 60 mg/kg and 90 mg/kg i.p.): statistically significantly increased the number of electrically punished plate crossings
immobility time (mice [9]): statistically significantly shortened the immobility time
effect on CYP3A4 activity (CYP3A4): no effect
ED50 (Sprague-Dawley rats [10]): 34.9 mg/kg
effect on CYP2C9 activity (CYP2C9): small, statistically significant (p<0.05) inhibition
IC50 (HaCaT cells): 239.8 ± 0.6 µM
nociceptive response time, second phase (tonic inflammatory pain) (mice [11]; i.p., 30, 60 and 90 mg/kg): statistically significantly shortened the time of nociceptive response
nociceptive response time, first phase (acute pain) (mice [11]; i.p., all doses, statistically significant at 60 and 90 mg/kg): reduced the nociceptive response time
pain threshold (mechanical stimulus) (mice [12]; 30 mg/kg i.p.): increased the pain threshold only in the early phase
pain threshold (mechanical stimulus) (mice [12]; 60 mg/kg and 90 mg/kg i.p., early (3 h) and late (7 days) phase, vs measurement before compound): led to an increase in pain threshold at a dose-dependent manner
pain threshold (mechanical stimulus) (mice [13]; 90 mg/kg i.p.): increased the pain threshold to the values observed before the induction of streptozotocin diabetes
pain threshold (mechanical stimulus) (mice [13]; 30, 60 and 90 mg/kg i.p., vs measurement before compound): led to an increase in the pain threshold in a statistically significant and dose-dependent manner
ED50 [14]: 69.9 mg/kg
ED50 [15]: 38.1 mg/kg
effect on cell viability (HepG2 cell line): did not show a statistically significant effect
viability of human neurons under standard conditions [4]: did not affect the viability
concentrations from which the compound acted trophically (eliminating the effect of lack of B27 supplement) [4]: ≥ 1 µg/mL
neuroprotective effect after PILO-induced SE (neurodegenerative changes) (mice [16]): a protective effect was obtained for four mice
metabolites on UPLC chromatogram of reaction mixture (human liver microsomes): no metabolites appeared

Nc1nnc(-c2cccc(Cl)c2Cl)c(N)n1 [lamotrigine]
sedative effect, share of patients (patients): approx. 10 % of patients

CCC1(c2ccccc2)C(=O)NC(=O)NC1=O [phenobarbital]
sedative effect, share of patients (patients): approx. 39 % of patients
